Experimental data published in patent US11272841B2, “Indicator fluids, systems, and methods for assessing movement of substances within, to or from a cerebrospinal fluid, brain or spinal cord compartment of a cranio-spinal cavity of a human” (BRAINWIDESOLUTIONS AS, priority 2017, dated 2022).

Columns and labels:
[1] = Gadobutrol concentration in blood at time points after gadobutrol was present in CSF (FIG. 1e-h); format: in vivo, human
Source text: In test studies, the inventors measured concentrations of the indicator fluid gadobutrol in blood at different time points after indicator fluid was present in CSF. […] In FIG. 1e-h are provided examples of measurements of gadobutrol (indicator fluid) concentrations in blood. On the y-axis is shown the indicator fluid concentration level 119 in blood (i.e. concentration of gadobutrol measured in units mg/kg), and on x-axis the time 120 elapsed from gadobutrol was present within the CSF. The concentration level of gadobutrol was measured after different time points 120, including after 1-2 hours, 3-4 hours, 5-6 hours, 7-8 hours, 23-26 hours, and 46-49 hours, for different individuals.
With reference to FIG. 1e, trend plots of average values of gadobutrol concentrations in blood (mg/kg) are shown for individuals with intracranial hypotension 121 (symbol ♦; n=4), idiopathic intracranial hypertension 122 (symbol ●; n=1), idiopathic normal pressure hydrocephalus 123 (symbol ▴; n=1), cerebral cyst 124 (symbol O; n=4), and arachnoid cyst 125 (symbol ▪; n=4). The letter n refers to number of individuals within each group. […] Half-time of gadobutrol in blood is about 1.8 hours. It should be noted that the amount and time course of appearance of gadobutrol in blood differs for the various groups of individuals, related to the fact that the ability to remove substances from the cranio-spinal compartment varies between individuals. […] The concentrations may be determined after 24 or 48 hours or after any time point within 72 hours after the indicator fluid is present in CSF.
In FIG. 1f-h, the inventors provide some examples of measurements of indicator fluid (the MRI contrast agent gadobutrol) concentration level in blood at different time points after indicator fluid being present in CSF in three separate individuals. It should be noted that the invention gives no limitation regarding the method by which the blood concentration is measured. […]

[2] = human, in vivo
Procedure: Repeated T1-weighted MRI scans of the intracranial compartment (and neck region for imaging of cervical lymph nodes), either in the presence or absence of the MRI contrast agent gadobutrol (0.5 ml of 1.0 mmol/ml; Gadovist®, Bayer Pharma AG, GE) delivered to the CSF compartment. MRI scans were acquired on a 3 Tesla Philips Ingenia MRI scanner (Philips Medical systems, Best, The Netherlands). The inventors used a dedicated imaging protocol for each region, that was applied to all time points. The following parameters for 3D T1 w imaging of the intracranial compartment were used: repetition time (TR)=5.1 ms (set to minimum), echo time (TE)=2.3 ms (set to minimum), flip angle=8 degrees, field of view=256×256 cm, and matrix=256×256 pixels (reconstructed 512×512). Total 184 over-contiguous slices with 1 mm thickness were sampled and automatically reconstructed to 368 slices and a thickness of 0.5 mm. Each image acquisition lasted 6 minutes and 29 seconds. An automated anatomy recognition protocol based on landmark detection in MRI data (SmartExam™, Philips Medical Systems, Best, The Netherlands) was applied at every time point to secure consistency and reproducibility of the MRI studies. Neck images were obtained in an anatomical standardized coronal plane, using T1 weighted turbo spin echo (TSE) DIXON with the following main image sequence parameters: TR=560 ms, TE=14 ms, flip angle=90 degrees, field of view 250×198 mm, voxel size=1×1×3 mm reconstructed to 0.58×0.58×3 mm^3, gap 0.3 mm, number of slices=30. For detection of neck lymph nodes, we obtained coronal T2 weighted TSE DIXON with TR=ranged 2500-3500 (actual 2500), TE=80 ms, flip angle=90 degrees, field of view 250×200 mm, resolution 0.6×0.79×3 mm^3 reconstructed to 0.58×0.58×3 mm^3, gap 0.3 mm, number of slices=30. Moreover, to ensure same position on the coronal slices between scan times a screen dump showing the placement of the first coronal images was saved and used as a reference for subsequent planning by the radiographer. […]

[3] = cited from earlier work

O=C([O-])CN1CCN(CC(=O)[O-])CCN([C@H](CO)[C@H](O)CO)CCN(CC(=O)[O-])CC1.[Gd+3] (racemic) [gadobutrol]
Time of maximum concentration in blood after gadobutrol present in CSF ([1]; group trend plot: arachnoid cyst (n=4)): 3 to 4 h | Time of maximum concentration in blood after gadobutrol present in CSF ([1]; group trend plot: cerebral cyst (n=4)): 7 to 8 h | Time of maximum concentration in blood after gadobutrol present in CSF ([1]; group trend plots: intracranial hypotension (n=4), idiopathic intracranial hypertension (n=1), iNPH (n=1)): 5 to 6 h | Increase of indication signal as compared without contrast [2]: 29% | SU enhancement within cervical LNs as proportion of that in the brain [2]: about 40% | Time of peak enhancement in T1 SUs after gadobutrol present within CSF [2]: 24 h | Half-time of gadobutrol in blood [3]: about 1.8 hours
